Reference: patent US20050095240A1, “NaCT as a target for lifespan expansion and weight reduction” (Medical College of Georgia Research, priority 2002, published 2005)
Read-outs that look alike come from different tables or passages of the source.

What was measured:
[1] = target: human NaCT (Homo sapiens, UniProt Q86YT5); test: Uptake via human NaCT expressed in HRPE cells; format: cell-based
[2] = target: zebrafish NaCT (Danio rerio, UniProt A0A2R8QQN0, K78Q); test: Citrate uptake via zebrafish NaCT expressed in HRPE cells; format: cell-based; conditions: for Citrate uptake, zfNaCT, percent of corresponding control: 30 min
zebrafish NaCT, sequence (A0A2R8QQN0 2-582 K78Q): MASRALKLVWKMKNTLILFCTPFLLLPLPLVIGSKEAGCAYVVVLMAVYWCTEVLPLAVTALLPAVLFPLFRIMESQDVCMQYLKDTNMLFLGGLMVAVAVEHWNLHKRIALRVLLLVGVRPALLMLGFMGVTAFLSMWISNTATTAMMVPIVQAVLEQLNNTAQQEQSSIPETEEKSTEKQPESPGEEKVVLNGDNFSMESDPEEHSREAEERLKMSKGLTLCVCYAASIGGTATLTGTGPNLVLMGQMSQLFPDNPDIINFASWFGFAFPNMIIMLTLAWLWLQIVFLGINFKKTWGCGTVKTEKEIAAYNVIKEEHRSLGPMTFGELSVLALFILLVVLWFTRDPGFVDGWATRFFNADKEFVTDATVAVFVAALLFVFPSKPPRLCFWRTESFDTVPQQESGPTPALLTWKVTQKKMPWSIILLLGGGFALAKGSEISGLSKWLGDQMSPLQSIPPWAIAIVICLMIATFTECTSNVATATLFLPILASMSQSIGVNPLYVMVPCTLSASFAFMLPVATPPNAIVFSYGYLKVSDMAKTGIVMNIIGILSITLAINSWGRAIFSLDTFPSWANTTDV

[3] = target: T1, rat NaCT (Rattus norvegicus, UniProt Q8CJ44); test: Uptake via rat NaCT expressed in HRPE cells; format: cell-based
T1 sequence (Q8CJ44 1-572): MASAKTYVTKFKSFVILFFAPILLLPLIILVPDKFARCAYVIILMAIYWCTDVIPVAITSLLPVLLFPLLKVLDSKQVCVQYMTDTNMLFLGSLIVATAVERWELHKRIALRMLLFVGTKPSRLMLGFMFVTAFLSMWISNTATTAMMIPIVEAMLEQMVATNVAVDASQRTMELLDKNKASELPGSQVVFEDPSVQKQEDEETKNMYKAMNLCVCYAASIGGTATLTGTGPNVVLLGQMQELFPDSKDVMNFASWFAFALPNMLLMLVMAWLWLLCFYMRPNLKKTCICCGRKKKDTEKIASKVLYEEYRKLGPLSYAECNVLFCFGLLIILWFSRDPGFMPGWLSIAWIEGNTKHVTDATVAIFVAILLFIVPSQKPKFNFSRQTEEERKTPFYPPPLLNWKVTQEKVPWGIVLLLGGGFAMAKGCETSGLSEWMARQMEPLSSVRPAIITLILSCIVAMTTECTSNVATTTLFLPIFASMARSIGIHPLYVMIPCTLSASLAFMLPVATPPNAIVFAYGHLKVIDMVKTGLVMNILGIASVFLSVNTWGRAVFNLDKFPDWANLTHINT

[4] = target: T2, NaCT in HepG2 cells (Homo sapiens, UniProt Q86YT5); test: Citrate uptake in HepG2 cells (constitutively expressed NaCT); format: cell-based
T2 construct: the effect of Li^+ on constitutively expressed NaCT in human liver cells was studied; host or cells: HepG2
T2 sequence (Q86YT5 whole entry): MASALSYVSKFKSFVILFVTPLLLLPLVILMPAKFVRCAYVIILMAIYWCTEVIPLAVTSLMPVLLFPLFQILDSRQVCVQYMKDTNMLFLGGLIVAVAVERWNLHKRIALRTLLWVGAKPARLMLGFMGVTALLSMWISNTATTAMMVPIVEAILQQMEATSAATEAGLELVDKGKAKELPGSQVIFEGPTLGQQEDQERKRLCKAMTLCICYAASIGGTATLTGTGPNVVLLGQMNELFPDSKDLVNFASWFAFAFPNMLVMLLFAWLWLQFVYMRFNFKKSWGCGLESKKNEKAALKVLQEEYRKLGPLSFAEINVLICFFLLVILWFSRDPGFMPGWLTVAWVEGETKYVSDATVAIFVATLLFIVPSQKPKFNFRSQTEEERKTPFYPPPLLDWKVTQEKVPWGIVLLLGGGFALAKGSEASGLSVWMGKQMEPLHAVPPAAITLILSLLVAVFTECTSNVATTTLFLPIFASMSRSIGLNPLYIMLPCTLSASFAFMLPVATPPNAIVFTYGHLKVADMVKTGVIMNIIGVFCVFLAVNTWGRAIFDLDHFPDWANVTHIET
Protocol: Uptake measurement in human liver cell lines. The human liver cell lines (HepG2 and Huh-7) were cultured to confluency in 24-well culture plates using appropriate culture medium. The HepG2 cell line was obtained from American Type Culture Collection (Manasses, Va.). The Huh-7 cell line (Bode et al., (2002) Am. J. Physiol. 283, G1062-G1073) was provided by Dr. Barrie P. Bode (St. Louis University, St. Louis, Mo.). Uptake measurements in monolayer cultures of these cells were measured as described above for the heterologously expressed NaCTs.

[5] = cited from earlier work
[6] = target: T3, ceNaCT (Caenorhabditis elegans, UniProt P32739, I91S/L182M); test: Uptake via ceNaCT expressed in HRPE cells
T3 sequence (P32739 1-551 I91S/L182M): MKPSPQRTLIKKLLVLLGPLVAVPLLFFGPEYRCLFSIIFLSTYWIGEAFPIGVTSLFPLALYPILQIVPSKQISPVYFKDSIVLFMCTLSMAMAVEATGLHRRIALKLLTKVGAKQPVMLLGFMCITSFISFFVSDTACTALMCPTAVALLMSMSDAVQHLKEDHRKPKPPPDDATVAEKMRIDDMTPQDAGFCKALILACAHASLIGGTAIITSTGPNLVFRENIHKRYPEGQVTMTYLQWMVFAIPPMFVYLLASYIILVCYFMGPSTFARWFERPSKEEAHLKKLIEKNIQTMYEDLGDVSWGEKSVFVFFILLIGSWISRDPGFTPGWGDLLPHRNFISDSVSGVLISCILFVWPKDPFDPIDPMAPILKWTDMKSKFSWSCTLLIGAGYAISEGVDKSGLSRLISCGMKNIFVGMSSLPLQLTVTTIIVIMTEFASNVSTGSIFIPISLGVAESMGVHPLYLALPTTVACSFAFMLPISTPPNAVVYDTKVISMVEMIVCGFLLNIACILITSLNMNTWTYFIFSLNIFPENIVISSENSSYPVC

[7] = target: T4, mouse NaCT (Mus musculus, UniProt Q67BT3); test: Transport via mouse NaCT expressed in HRPE cells; format: cell-based
T4 sequence (Q67BT3 1-572): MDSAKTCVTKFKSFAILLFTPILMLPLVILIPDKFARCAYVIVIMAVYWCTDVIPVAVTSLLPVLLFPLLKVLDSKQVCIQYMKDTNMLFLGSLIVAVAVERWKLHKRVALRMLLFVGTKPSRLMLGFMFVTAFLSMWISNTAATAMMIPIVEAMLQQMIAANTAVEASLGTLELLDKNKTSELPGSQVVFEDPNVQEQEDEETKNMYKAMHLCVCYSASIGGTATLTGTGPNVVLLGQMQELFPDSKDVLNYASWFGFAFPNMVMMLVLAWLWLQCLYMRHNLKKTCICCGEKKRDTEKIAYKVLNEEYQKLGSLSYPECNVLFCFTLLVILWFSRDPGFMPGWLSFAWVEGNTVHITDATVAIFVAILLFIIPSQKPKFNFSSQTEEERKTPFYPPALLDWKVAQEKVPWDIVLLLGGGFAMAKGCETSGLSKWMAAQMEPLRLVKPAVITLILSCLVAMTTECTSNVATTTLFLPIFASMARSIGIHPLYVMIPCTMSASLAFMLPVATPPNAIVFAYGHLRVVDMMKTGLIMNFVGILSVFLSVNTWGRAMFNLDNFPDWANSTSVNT

[8] = target: T1, rat NaCT; test: Rat NaCT in X. laevis oocytes, voltage clamp and charge-to-substrate ratio; format: cell-based
[9] = target: drIndy (Drosophila melanogaster, UniProt Q9VVT2); conditions: for cDNA-specific [^3H] succinate uptake: pH 7.5
drIndy, sequence (Q9VVT2 19-590): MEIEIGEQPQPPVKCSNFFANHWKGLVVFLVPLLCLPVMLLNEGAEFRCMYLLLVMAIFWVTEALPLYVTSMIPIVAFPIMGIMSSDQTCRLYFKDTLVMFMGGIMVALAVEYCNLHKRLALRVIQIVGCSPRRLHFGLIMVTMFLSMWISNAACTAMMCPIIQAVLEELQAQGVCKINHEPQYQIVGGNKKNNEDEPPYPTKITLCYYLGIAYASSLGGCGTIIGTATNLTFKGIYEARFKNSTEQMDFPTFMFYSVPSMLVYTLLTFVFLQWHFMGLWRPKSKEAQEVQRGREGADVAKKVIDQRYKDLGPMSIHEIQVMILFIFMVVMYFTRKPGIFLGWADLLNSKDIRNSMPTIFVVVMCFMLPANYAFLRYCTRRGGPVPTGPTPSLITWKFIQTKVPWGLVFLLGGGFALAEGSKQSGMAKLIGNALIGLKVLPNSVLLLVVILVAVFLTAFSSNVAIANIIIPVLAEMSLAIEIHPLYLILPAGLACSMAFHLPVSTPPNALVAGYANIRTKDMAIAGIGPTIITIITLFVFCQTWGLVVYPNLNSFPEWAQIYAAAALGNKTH

[10] = substrate: O=C(O)CC(O)(CC(=O)O)C(=O)O; test: cells, lysate or membranes; conditions: other: pH 7.5, 37.0 °C
[11] = Li+ 2 mM, valproate 0.6 μM, carbamazepine 50 μM

human NaCT, sequence (Q86YT5 whole entry): as the sequence (Q86YT5 whole entry) above

NC(=O)N1c2ccccc2C=Cc2ccccc21 [Carbamazepine, carbamazepine]
Citrate uptake, hNaCT [1, 11]: 54.1 ± 2.6 pmol/10^6 cells/min | Citrate uptake, hNaCT, percent of corresponding control [1, 11]: 105% | Citrate uptake, zfNaCT [2]: 441.0 ± 2.7 (91) pmol/10^6 cells/min | Citrate uptake, zfNaCT, percent of corresponding control ([2]; hrpe cells): 441.0 ± 2.7 (91) percent | Citrate uptake, rNaCT [3, 11]: 133.5 ± 0.7 pmol/10^6 cells/min | Citrate uptake, rNaCT, percent of corresponding control [3, 11]: 90% | Citrate uptake, HepG2 cells [4, 11]: 10.0 ± 0.2 pmol/min/mg protein | Citrate uptake, HepG2 cells, percent of corresponding control [4, 11]: 106% | Therapeutic plasma levels in humans ([5]; human, in vivo): 20 to 50 µM | Citrate uptake, ceNaCT [6, 11]: 45.1 ± 1.5 pmol/10^6 cells/min | Citrate uptake, ceNaCT, percent of corresponding control [6, 11]: 104% | Citrate uptake, mNaCT [7, 11]: 43.7 ± 2.0 pmol/10^6 cells/min | Citrate uptake, mNaCT, percent of corresponding control [7, 11]: 103%

CC(O)C(=O)O (centres unmarked) [Lactate, lactate]
[^14C]-Citrate Uptake (cDNA-specific) [1]: 61.2 ± 6.0 pmol/10^6 cells/min | [^14C]-Citrate Uptake, % [1]: 128% | Substrate-induced currents [8]: no or little currents | [^14C]Citrate uptake (cDNA-specific) [3]: 89.6 ± 2.0 Pmol/10^6 cells/min | [^14C]Citrate uptake, % [3]: 83% | % Control of cDNA-specific [^3H]succinate uptake [9]: 77% | cDNA-specific [^3H] succinate uptake [9]: 111.2 ± 3.2 fmol/106 cells per min | Competition with [^14C]citrate for ceNaCT-mediated uptake [6]: only a minimal inhibition | [^3H]-Succinate transport (NaCT-specific) [7]: 0.162 ± 0.008 pmol/10^6 cells/min | [^3H]-Succinate transport, % [7]: 111% | [^14C]-Citrate transport (NaCT-specific) [7]: 29.8 ± 3.4 pmol/10^6 cells/min | [^14C]-Citrate transport, % [7]: 78%

O=C(O)/C=C\C(=O)O [Maleate]
[^14C]-Citrate Uptake (cDNA-specific) [1]: 58.0 ± 6.7 pmol/10^6 cells/min | [^14C]-Citrate Uptake, % [1]: 121% | [^14C]Citrate uptake (cDNA-specific) [3]: 78.8 ± 1.5 Pmol/10^6 cells/min | [^14C]Citrate uptake, % [3]: 73% | % Control of cDNA-specific [^3H]succinate uptake [9]: 85% | cDNA-specific [^3H] succinate uptake [9]: 123.1 ± 7.6 fmol/106 cells per min | Competition with [^14C]citrate for ceNaCT-mediated uptake [6]: failed to compete with citrate | [^3H]-Succinate transport (NaCT-specific) [7]: 0.165 ± 0.014 pmol/10^6 cells/min | [^3H]-Succinate transport, % [7]: 113% | [^14C]-Citrate transport (NaCT-specific) [7]: 31.2 ± 2.5 pmol/10^6 cells/min | [^14C]-Citrate transport, % [7]: 82%

CCCC(CCC)C(=O)O [Valproate, valproate]
Citrate uptake, hNaCT, percent of corresponding control [1, 11]: 111% | Citrate uptake, zfNaCT, percent of corresponding control [2, 11]: 93.2% | Citrate uptake, rNaCT, percent of corresponding control [3, 11]: 96% | Citrate uptake, HepG2 cells, percent of corresponding control [4, 11]: 105% | Plasma concentrations / therapeutic plasma levels in humans ([5]; patients under treatment): 300 to 600 µM | Citrate uptake, ceNaCT, percent of corresponding control [6, 11]: 106% | Citrate uptake, mNaCT, percent of corresponding control [7, 11]: 100%

O=C(O)/C=C(/CC(=O)O)C(=O)O [cis-Aconitate, cis-aconitate]
[^14C]-Citrate Uptake (cDNA-specific) ([1]; [14C]-citrate 20 μM, unlabeled compound 2.5 mM): 55.5 ± 3.3 pmol/10^6 cells/min | [^14C]-Citrate Uptake, % ([1]; [14C]-citrate 20 μM, unlabeled compound 2.5 mM, none = 100): 116% | Substrate-induced currents as % of citrate-induced currents ([8]; substrate 0.5 mM): approximately 10% | Competition with [^14C]citrate for ceNaCT-mediated uptake ([6]; competitor 2.5 mM, [14C]citrate 15 μM): did not compete with [^14C]citrate as effectively as unlabelled citrate | [^3H]-Succinate transport (NaCT-specific) ([7]; [3H]-succinate 0.1 μM, substrate analog 2 mM): 0.062 ± 0.005 pmol/10^6 cells/min | [^3H]-Succinate transport, % ([7]; [3H]-succinate 0.1 μM, substrate analog 2 mM, control = 100): 43% | [^14C]-Citrate transport (NaCT-specific) ([7]; [14C]-citrate 10 μM, substrate analog 2 mM): 18.1 ± 1.8 pmol/10^6 cells/min | [^14C]-Citrate transport, % ([7]; [14C]-citrate 10 μM, substrate analog 2 mM, control = 100): 47%

tunicamycin
Effect on NaCT activity in HepG2 cells ([4]; treatment of HepG2 cells with tunicamycin): significant inhibition

B1: ceNaCT (Caenorhabditis elegans; I91S/L182M) (protein)
chain: MKPSPQRTLIKKLLVLLGPLVAVPLLFFGPEYRCLFSIIFLSTYWIGEAFPIGVTSLFPLALYPILQIVPSKQISPVYFKDSIVLFMCTLSMAMAVEATGLHRRIALKLLTKVGAKQPVMLLGFMCITSFISFFVSDTACTALMCPTAVALLMSMSDAVQHLKEDHRKPKPPPDDATVAEKMRIDDMTPQDAGFCKALILACAHASLIGGTAIITSTGPNLVFRENIHKRYPEGQVTMTYLQWMVFAIPPMFVYLLASYIILVCYFMGPSTFARWFERPSKEEAHLKKLIEKNIQTMYEDLGDVSWGEKSVFVFFILLIGSWISRDPGFTPGWGDLLPHRNFISDSVSGVLISCILFVWPKDPFDPIDPMAPILKWTDMKSKFSWSCTLLIGAGYAISEGVDKSGLSRLISCGMKNIFVGMSSLPLQLTVTTIIVIMTEFASNVSTGSIFIPISLGVAESMGVHPLYLALPTTVACSFAFMLPISTPPNAVVYDTKVISMVEMIVCGFLLNIACILITSLNMNTWTYFIFSLNIFPENIVISSENSSYPVC
Km [10]: 76 ± 14 µM
